Experimental data as given in US20220323406A1, “METHODS AND COMPOSITIONS FOR DIFFERENTIATING STEM CELLS” (Massachusetts Institute of Technology, priority 2019, published 2022).
Counter-ions that a name gives are not always drawn.

Legend:
[1] = system: ENR+CD organoids (ISC to Paneth cell differentiation); assay: Primary screen: basal (non-stimulated) lysozyme secretion LYZ.NS, 2.5-D 384-well ENR+CD organoid differentiation; assay type: cell-based, mouse
From the text: (§1) High-throughput screening.

[2] = system: ENR+CD organoids (ISC to Paneth cell differentiation); assay: Primary screen: CCh-stimulated lysozyme secretion LYZ.S, 2.5-D 384-well ENR+CD organoid differentiation; assay type: cell-based, mouse; settings: primary screen
From the text: as §1

ENR+CD organoids = assay: Primary screen: ATP (CellTiter-Glo 3D, CTG) cell number/viability, 2.5-D 384-well ENR+CD organoids;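 also: compounds given at plating and again on day 3 over a 6-day differentiation from ENR+CV stem-cell-enriched precursors, ATP measured on day 6, plate median as control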
[3] = primary screen, standard z score, dose 0.08 uM
[4] = primary screen, standard z score, dose 0.40 uM
[5] = primary screen, standard z score, dose 2.00 uM
[6] = primary screen, standard z score, dose 10.00 uM
[7] = primary screen, dose 0.08 uM, standard z score
[8] = primary screen, dose 0.40 uM, standard z score
[9] = primary screen, dose 2.00 uM, standard z score
[10] = primary screen, dose 10.00 uM, standard z score
[11] = primary screen; dose 0.08 uM; FC vs plate median
[12] = primary screen; dose 0.40 uM; FC vs plate median
[13] = primary screen; dose 2.00 uM; FC vs plate median
[14] = primary screen; dose 10.00 uM; FC vs plate median
[15] = dose 0.08 uM, FC vs plate median
[16] = dose 0.40 uM, FC vs plate median
[17] = dose 2.00 uM, FC vs plate median
[18] = dose 10.00 uM, FC vs plate median

SMILES: CCC(CC)CC1(C(=O)Nc2ccccc2SC(=O)C(C)C)CCCCC1 [Dalcetrapib (JTT-705, RO4607381)]
- Dose.FC.LYZ.NS ([1]; primary screen, dose 0.08 uM): 0.055 log2 fold change
- Dose.FC.LYZ.NS ([1]; primary screen, dose 0.40 uM): −0.037 log2 fold change
- Dose.FC.LYZ.NS ([1]; primary screen, dose 2.00 uM): −0.034 log2 fold change
- Dose.FC.LYZ.NS ([1]; primary screen, dose 10.00 uM): −0.074 log2 fold change
- Z.LYZ.NS [1, 3]: 0.475
- Z.LYZ.NS [1, 4]: −0.324
- Z.LYZ.NS [1, 5]: −0.296
- Z.LYZ.NS [1, 6]: −0.643
- Dose.FC.LYZ.S ([2]; dose 0.08 uM): 0.049 log2 fold change
- Dose.FC.LYZ.S ([2]; dose 0.40 uM): 0.104 log2 fold change
- Dose.FC.LYZ.S ([2]; dose 2.00 uM): 0.098 log2 fold change
- Dose.FC.LYZ.S ([2]; dose 10.00 uM): −0.113 log2 fold change
- Dose.FC.CTG (ENR+CD organoids; primary screen, dose 0.08 uM): 0.112 log2 fold change
- Dose.FC.CTG (ENR+CD organoids; primary screen, dose 0.40 uM): −0.006 log2 fold change
- Dose.FC.CTG (ENR+CD organoids; primary screen, dose 2.00 uM): 0.079 log2 fold change
- Dose.FC.CTG (ENR+CD organoids; primary screen, dose 10.00 uM): 0.136 log2 fold change
- Z.CTG (ENR+CD organoids; [3]): 0.268
- Z.CTG (ENR+CD organoids; [4]): −0.014
- Z.CTG (ENR+CD organoids; [5]): 0.188
- Z.CTG (ENR+CD organoids; [6]): 0.324

SMILES: O=C(O)/C=C/c1ccc(Cn2ccnc2)cc1 [Ozagrel HCl]
- Z.LYZ.NS [1, 7]: 1.756
- Z.LYZ.NS [1, 8]: 0.000
- Z.LYZ.NS [1, 9]: 0.308
- Z.LYZ.NS [1, 10]: −0.061
- Dose.FC.LYZ.NS [1, 11]: 0.202 log2 fold change
- Dose.FC.LYZ.NS [1, 12]: 0.000 log2 fold change
- Dose.FC.LYZ.NS [1, 13]: 0.035 log2 fold change
- Dose.FC.LYZ.NS [1, 14]: −0.007 log2 fold change
- Dose.FC.LYZ.S [2, 15]: 0.119 log2 fold change
- Dose.FC.LYZ.S [2, 16]: 0.073 log2 fold change
- Dose.FC.LYZ.S [2, 17]: 0.135 log2 fold change
- Dose.FC.LYZ.S [2, 18]: 0.061 log2 fold change
- Dose.FC.CTG (ENR+CD organoids; [11]): 0.049 log2 fold change
- Dose.FC.CTG (ENR+CD organoids; [12]): 0.133 log2 fold change
- Dose.FC.CTG (ENR+CD organoids; [13]): 0.183 log2 fold change
- Dose.FC.CTG (ENR+CD organoids; [14]): 0.229 log2 fold change

SMILES: CC(=O)c1cc([N+](=O)[O-])c(Sc2ccc(F)cc2F)s1 [P22077]
- Z.LYZ.NS [1, 7]: 0.338
- Z.LYZ.NS [1, 8]: −0.041
- Z.LYZ.NS [1, 9]: 0.248
- Z.LYZ.NS [1, 10]: −0.487
- Dose.FC.LYZ.NS [1, 11]: 0.039 log2 fold change
- Dose.FC.LYZ.NS [1, 12]: −0.005 log2 fold change
- Dose.FC.LYZ.NS [1, 13]: 0.028 log2 fold change
- Dose.FC.LYZ.NS [1, 14]: −0.056 log2 fold change
- Dose.FC.LYZ.S [2, 15]: −0.182 log2 fold change
- Dose.FC.LYZ.S [2, 16]: 0.065 log2 fold change
- Dose.FC.LYZ.S [2, 17]: −0.007 log2 fold change
- Dose.FC.LYZ.S [2, 18]: −0.063 log2 fold change
- Z.CTG (ENR+CD organoids; [7]): −0.516
- Z.CTG (ENR+CD organoids; [8]): 0.117
- Z.CTG (ENR+CD organoids; [9]): −0.320
- Z.CTG (ENR+CD organoids; [10]): −0.311
- Dose.FC.CTG (ENR+CD organoids; [11]): −0.216 log2 fold change
- Dose.FC.CTG (ENR+CD organoids; [12]): 0.049 log2 fold change
- Dose.FC.CTG (ENR+CD organoids; [13]): −0.134 log2 fold change
- Dose.FC.CTG (ENR+CD organoids; [14]): −0.130 log2 fold change

SMILES: Cn1c(=O)cc(N2CCC[C@@H](N)C2)n(Cc2cc(F)ccc2C#N)c1=O [Trelagliptin]
- Dose.FC.LYZ.NS ([1]; primary screen, dose 0.08 uM): 0.007 log2 fold change
- Z.LYZ.NS (standard z score) ([1]; primary screen, dose 0.08 uM): 0.059
- Dose.FC.LYZ.NS ([1]; primary screen, dose 0.40 uM): −0.019 log2 fold change
- Z.LYZ.NS (standard z score) ([1]; primary screen, dose 0.40 uM): −0.166
- Dose.FC.LYZ.NS ([1]; primary screen, dose 2.00 uM): −0.033 log2 fold change
- Z.LYZ.NS (standard z score) ([1]; primary screen, dose 2.00 uM): −0.292
- Dose.FC.LYZ.NS ([1]; primary screen, dose 10.00 uM): −0.050 log2 fold change
- Z.LYZ.NS (standard z score) ([1]; primary screen, dose 10.00 uM): −0.433
- Dose.FC.LYZ.S ([2]; dose 0.08 uM): 0.020 log2 fold change
- Dose.FC.LYZ.S ([2]; dose 0.40 uM): 0.058 log2 fold change
- Dose.FC.LYZ.S ([2]; dose 2.00 uM): −0.022 log2 fold change
- Dose.FC.LYZ.S ([2]; dose 10.00 uM): −0.109 log2 fold change
- Dose.FC.CTG (ENR+CD organoids; primary screen, dose 0.08 uM): 0.202 log2 fold change
- Dose.FC.CTG (ENR+CD organoids; primary screen, dose 0.40 uM): −0.076 log2 fold change
- Dose.FC.CTG (ENR+CD organoids; primary screen, dose 2.00 uM): 0.050 log2 fold change
- Dose.FC.CTG (ENR+CD organoids; primary screen, dose 10.00 uM): 0.135 log2 fold change
